Assay type in all cases: cell-based
Experiment [1] has as its system liver cells (HepG2). As to the kind of experiment: Fatty acid oxidation in liver cells ([1-14C]-palmitate). The following applies: 6 hours culture, positive control. The procedure:
To determine the degree of fatty acid oxidation in liver cells, HepG2 cells were seeded on a 96-well plate. After stabilizing the seeded plate, AICAR and chito-oligosaccharide were added in a concentration of 100 and 500 ppm. After culturing for 6 hours, to the cells was added […] of assay buffer (20 mM HEPES, 25 mM NaHCO3, 1.2 mM KH2PO4, 3 mM glucose, 114 mM NaCl, 4.7 mM KCl, 1.2 mM MgSO4, 2.5 mM CaCl2, 1% ultra fatty acid-free BSA) and they are reacted for 30 minutes. Then, [1-^14C]-palmitate (3.4 μCi; 1.0 μCi/μmole) was incorporated thereto and labeling was carried out for 2 hours. 5% perchloric acid was added to stop the reaction and the amount of radiation was measured.

Experiment [2] concerns liver cells (HepG2). As to the kind of experiment: Production of ATP in liver cells (ATP assay kit, luminescence). The following applies: 5 to 500 ppm, 24 hours culture. On the procedure:
The production of ATP according to AMPK activation was measured by ATP assay kit. HepG2 cells were seeded on a 96-well plate and the seeded plate was stabilized and, thereafter, AICAR and chito-oligosaccharide were added in a concentration of 5 to 500 ppm. After culturing for 24 hours, the reagent prepared by mixing a substrate and a buffer was added to each well and they were reacted for 30 minutes at a room temperature. Cells were disrupted by mixing them in an orbital shaker and, after stabilizing them for 10 minutes, a luminescence was measured.

Another experiment has as its system ACC. Put plainly: ACC activation: western blot of ACC and p-ACC protein expression in liver cells. The following applies: HepG2 liver cells. On the procedure: (§1) Chito-oligosaccharides with a molecular weight of 2,000 and 9,000 (100, 500 ppm) and liver cells (HepG2) treated by AICAR (1 mM) were added to a lysis buffer (50 mM Tris-HCl, pH 7.4, 150 mM NaCl, 0.1% SDS, 1.0% Triton X-100. 0.25% Deoxycholate, 1 mM EDTA, 1 mM PMSF) to disrupt the cells. The homogenate was centrifuged at 12,000 rpm for 15 minutes and a layer of protein was obtained. The degree of expression of ACC and p-ACC proteins was determined by a western blotting. 50 μg of protein was loaded on SDS-polyacrylamide gel, electrophoresis was carried out, and the gel was transferred to a nitrocellulose membrane. The membrane was reacted with blocking solution (5% skim milk, 10 mM Tris, pH7.5, 10 mM NaCl, 0.1% Tween 20) for 1 hour to remove nonspecific bindings, the primary antibodies to AMPK and p-AMPK proteins were added and it was maintained overnight at 4° C. Thereafter, it was washed with a blocking solution for 10 minutes three times, the secondary antibodies were added thereto, and they were reacted for 1 hour and washed as described above. After adding ECL solution, the membrane was exposed to X-ray film and the amount of protein was measured. The change in the amount of protein was calculated by an optical density with an image analyzer.
The expressions of ACC and p-ACC proteins were measured by a Western blotting as described above.

Another experiment has as its system AMPK. Put plainly: AMPK activation: western blot of AMPK and p-AMPK protein expression in liver cells. The following applies: HepG2 liver cells; AICAR 1 mM; chito-oligosaccharide 100, 500 ppm; western blot optical density. The procedure: as §1
A general note: In western blotting, separated proteins are transferred to a membrane and probed.

For the molecule `NC(=O)c1ncn([C@@H]2O[C@H](CO)[C@@H](O)[C@H]2O)c1N` [AICAR, AICA-riboside], in the experiment on liver cells (HepG2) [1], the “increased oxidation of fatty acid” value is “about 35%”. Moreover, in the experiment with liver cells (HepG2) [2], the “production of ATP” value is recorded as “up to twice”. The “amount of p-ACC protein expression” value with ACC (AICAR 1 mM, chito-oligosaccharide concentration not specified) is “up to twice”. The “total amount of ACC protein expression” value in the experiment with ACC (western blot) is listed as “not changed”. Further, the “expression of p-AMPK protein” value in the experiment with AMPK is given as “increased twice or more”.
